Laboratory results taken from patent publication US9205098B2, “Anti-cancer therapies” (Threshold Pharmaceuticals, Inc., priority 2004, dated 2015).

Legend:
[1] = system: tumors derived from As-PC-1 human pancreatic cancer cells; assay: As-PC-1 human pancreatic cancer tumor model in mice; type: in vivo, female NMRI nu/nu mice; settings: glufosfamide i.v., gemcitabine i.p., alone or in combination, once daily for 7 days
Procedure: (§1) A combination of glufosfamide and gemcitabine was administered daily for 7 days to female NMRI nu/nu mice that were carrying tumors derived from HS766-T or As-PC-1 human pancreatic cancer cells. Mice were administered doses of vehicle control (0.9% sodium chloride solution, i.v.), gemcitabine (i.p.), glufosfamide (i.v.) or gemcitabine/glufosfamide combinations once daily for 7 consecutive days. A dose of 1.25 mg/kg was used as the standard dose for gemcitabine throughout the study.

[2] = system: tumors derived from HS766-T human pancreatic cancer cells; assay: HS766-T human pancreatic cancer tumor model in mice; type: in vivo, female NMRI nu/nu mice
Procedure: as §1

[3] = system: tumors derived from type MiPaca2 human pancreatic cancer cells; assay: MiPaca2 human pancreatic cancer tumor model in nude mice; type: in vivo
Procedure: A combination of glufosfamide and gemcitabine was administered to nude mice that were carrying tumors derived from type MiPaca2 human pancreatic cancer cells. Mice were administered doses of vehicle control, gemcitabine, glufosfamide, or gemcitabine/glufosfamide combinations as tabulated in Table 1 below (10 mice/group). Glufosfamide was administered i.v., daily for 14 days (Groups 1-4 and 7-12). Gemcitabine was administered at 300 mg/kg, i.p., once a week for three weeks (Groups 6 and 10-12). Gemcitabine was administered at 150 mg/kg, i.p., twice a week for three weeks (Groups 5 and 7-9).

[4] = system: advanced pancreatic cancer; settings: patients with advanced pancreatic cancer; cited from earlier work
[5] = system: pancreatic cancer cell lines; settings: in vitro; cited from earlier work

Row | SMILES | inhibitory effect on tumor growth [1] | inhibitory effect on tumor progression ([2]; gemcitabine alone 1.25 mg/kg i.p. once daily for 7 days) | onset of tumor growth compared with gemcitabine alone or vehicle control ([2]; glufosfamide 10 mg/kg i.v. once daily for 7 days) | reduction in tumor size ([3]; Group 3: glufosfamide 30 mg/kg i.v. daily for 14 days) | reduction in tumor size ([3]; Group 4: glufosfamide 100 mg/kg i.v. daily for 14 days) | activity in patients [4] | activity against pancreatic cancer cell lines [5]
1 | Nc1ccn([C@@H]2O[C@H](CO)[C@@H](O)C2(F)F)c(=O)n1 [gemcitabine, 2′-deoxy-2′,2′-difluoro-cytidine] | no apparent inhibitory effect on tumor growth | only a marginal inhibitory effect |  |  |  |  | 
2 | O=P(NCCCl)(NCCCl)O[C@@H]1O[C@H](CO)[C@@H](O)[C@H](O)[C@H]1O [glufosfamide, β-D-glucosyl-ifosfamide mustard] | no apparent inhibitory effect on tumor growth |  | dramatic delay in the onset of tumor growth | modest reduction in tumor size | modest reduction in tumor size |  | 
3 | Nc1nc2[nH]cc(CCc3ccc(C(=O)N[C@@H](CCC(=O)O)C(=O)O)cc3)c2c(=O)[nH]1 [pemetrexed] |  |  |  |  |  | has shown activity | active
